Legend:
PTRGER4 (EP4) = PTRGER4 (EP4) (Homo sapiens (Human), UniProt P35408); assay: hEP4 b-arrestin assay (PathHunter HEK 293 PTGER4 b-arrestin cells); type: cell-based
Outline: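 Antagonist mode: compound is given 15 min at 37 °C, then 20 nM (final) PGE2 for 120 min, in HEK293 cells stably expressing EP4 fused to ProLink and β-arrestin 2 fused to EA. Recruitment read as β-gal luminescence after 1 h reagent at room temperature, as percent of DMSO control.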

PTGER2 (EP2) = PTGER2 (EP2) (Homo sapiens (Human), UniProt P43116); assay: hEP2 b-arrestin assay (PathHunter HEK 293 PTGER2 b-arrestin cells); type: cell-based
Sequence of PTGER2 (EP2) (P43116 whole entry): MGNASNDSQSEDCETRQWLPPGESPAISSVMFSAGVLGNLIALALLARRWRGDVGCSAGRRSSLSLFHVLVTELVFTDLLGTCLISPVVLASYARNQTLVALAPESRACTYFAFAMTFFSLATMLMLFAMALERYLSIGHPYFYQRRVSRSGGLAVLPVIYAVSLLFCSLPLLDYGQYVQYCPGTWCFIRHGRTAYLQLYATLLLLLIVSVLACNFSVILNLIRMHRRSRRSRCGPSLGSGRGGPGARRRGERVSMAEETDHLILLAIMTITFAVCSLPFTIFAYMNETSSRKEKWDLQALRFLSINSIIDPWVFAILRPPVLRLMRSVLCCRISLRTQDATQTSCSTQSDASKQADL
Outline: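 Readout is β-galactosidase complementation luminescence, expressed as percent of DMSO control (duplicates). PathHunter HEK293 EP2/β-arrestin 2 cells, grown 24 h, received compound for 15 min at 37 °C before a 120 min challenge with PGE2 at 5 μM final, followed by 1 h detection at room temperature.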

[1] = hEP4 b-arrestin assay (values without asterisk)
[2] = hEP2 b-arrestin assay (values without asterisk)
[3] = antagonistic activity on hEP4, mean where measured multiple times
[4] = antagonistic activity on hEP2, mean where measured multiple times

Sequence of PTRGER4 (EP4) (P35408 whole entry, looked up, the tested form may be a part): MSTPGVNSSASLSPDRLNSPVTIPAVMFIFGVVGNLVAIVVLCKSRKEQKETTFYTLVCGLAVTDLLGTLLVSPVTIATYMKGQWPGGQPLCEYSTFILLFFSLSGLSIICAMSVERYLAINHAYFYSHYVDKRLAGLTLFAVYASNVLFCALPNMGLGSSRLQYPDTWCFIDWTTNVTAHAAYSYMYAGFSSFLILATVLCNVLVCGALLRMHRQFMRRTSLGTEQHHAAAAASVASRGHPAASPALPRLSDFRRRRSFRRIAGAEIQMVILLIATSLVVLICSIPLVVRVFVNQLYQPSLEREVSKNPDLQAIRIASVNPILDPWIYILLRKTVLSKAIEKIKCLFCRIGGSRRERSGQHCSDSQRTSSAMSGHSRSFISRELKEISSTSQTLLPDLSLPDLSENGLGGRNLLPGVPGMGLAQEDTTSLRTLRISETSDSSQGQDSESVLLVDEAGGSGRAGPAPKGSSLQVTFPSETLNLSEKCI

Row | Structure (SMILES) | IC50 (PTRGER4 (EP4); [1]) | IC50 (PTGER2 (EP2); [2]) | IC50 (PTRGER4 (EP4); [3]) | IC50 (PTGER2 (EP2); [4])
1 | CCOc1cc(-c2cc(NCCn3c(C)cc4c(Cl)cc(F)cc43)ncn2)ccc1C(=O)O [compound 280] |  |  | 652 nM | 16 nM
2 | Cc1ccc(F)c2c1cc(C)n2CCNc1cc(-c2cc(Cl)c(C(=O)O)c(Cl)c2)ncn1 [compound 222] |  |  | 232 nM | 42 nM
3 | COc1ccc(F)c2c1cc(C)n2CCNc1cc(-c2nc(C(C)(C)C)c(C(=O)O)s2)ncn1 [Example 1038, 4-tert-Butyl-2-{6-[2-(7-fluoro-4-methoxy-2-methyl-indol-1-yl)-ethylamino]-pyrimidin-4-yl}-thiazole-5-carboxylic acid] | 20 nM | 64 nM |  | 
4 | CCOc1cc(-c2cc(NCCn3c(C#N)cc4c(OC)ccc(F)c43)ncn2)ccc1-c1noc(=O)[nH]1 [Example 820] | 2 nM | 6 nM |  | 
5 | COc1cccc2c1cc(C)n2CCNc1cc(-c2ccc(C3(C(=O)O)CC3)c(F)c2)ncn1 [compound 386] |  |  | 559 nM | 40 nM
6 | CCNc1cc(-c2cc(NCCn3c(C)cc4c(OC)cccc43)ncn2)cc(Cl)c1C(=O)O [compound 362, 2-Chloro-6-ethylamino-4-{6-[2-(4-methoxy-2-methyl-indol-1-yl)-ethylamino]-pyrimidin-4-yl}-benzoic acid] |  |  | 281 nM | 3 nM
7 | Cc1ccc(F)c2c1cc(C)n2CCNc1cc(-c2ccc(-n3cccn3)cc2)ncn1 [compound 73] |  |  | 970 nM | 214 nM
8 | Cc1cc(F)cc2c1cc(C)n2CCNc1cc(-c2cc(F)c(C(=O)O)s2)ncn1 [compound 48] |  |  | 351 nM | 24 nM
9 | CCOc1cc(-c2cc(NCCn3c(C#N)cc4c(Cl)cccc43)ncn2)sc1C(=O)O [Example 909, 5-{6-[2-(4-Chloro-2-cyano-indol-1-yl)-ethylamino]-pyrimidin-4-yl}-3-ethoxy-thiophene-2-carboxylic acid] | 14 nM | 3 nM |  | 
10 | CCOc1cc(-c2cc(NCCn3c(C)cc4c(Cl)cccc43)ncn2)ccc1C(=O)O [compound 234] |  |  | 249 nM | 3 nM
11 | Cc1cc2c(Cl)cccc2n1CCNc1cc(-c2ccc(C(=O)O)c(CC(C)C)c2)ncn1 [compound 268] |  |  | 635 nM | 11 nM
12 | CSc1cc(-c2cc(NCCn3c(C)cc4c(F)c(F)cc(Cl)c43)ncn2)cc(Cl)c1C(=O)O [compound 339, 2-Chloro-4-{6-[2-(7-chloro-4,5-difluoro-2-methyl-indol-1-yl)-ethylamino]-pyrimidin-4-yl}-6-methylsulfanyl-benzoic acid] |  |  | 989 nM | 5 nM
13 | CCCc1cc(-c2cc(NCCn3c(C)cc4cc(C)cc(Cl)c43)ncn2)cc(Cl)c1C(=O)O [compound 335] |  |  | 468 nM | 56 nM
14 | N#Cc1cc2c(Cl)cc(Cl)cc2n1CCNc1cc(-c2cc(C(F)(F)F)c(C(=O)O)s2)ncn1 [Example 856, 5-{6-[2-(4,6-Dichloro-2-cyano-indol-1-yl)-ethylamino]-pyrimidin-4-yl}-3-trifluoromethyl-thiophene-2-carboxylic acid] | 52 nM | 8 nM |  | 
15 | COc1cccc2c1cc(C)n2CCNc1cc(-c2ccc(S(N)(=O)=O)c(C)c2)ncn1 [compound 139, 4-{6-[2-(4-Methoxy-2-methyl-indol-1-yl)-ethylamino]-pyrimidin-4-yl}-2-methyl-benzenesulfonamide] |  |  | 939 nM | 28 nM
16 | CCSc1cc(-c2cc(NCCn3c(C)cc4ccccc43)ncn2)ccc1C(=O)O [compound 33, 2-Ethylsulfanyl-4-{6-[2-(2-methyl-indol-1-yl)-ethylamino]-pyrimidin-4-yl}-benzoic acid] |  |  | 678 nM | 3 nM
17 | CCOc1cc(-c2cc(NCCn3c(C)cc4cc(C)cc(F)c43)ncn2)sc1C(=O)O [compound 228] |  |  | 35 nM | 4 nM

Further lines, results first:

Row | IC50 (PTRGER4 (EP4); [1]) | IC50 (PTGER2 (EP2); [2]) | IC50 (PTRGER4 (EP4); [3]) | IC50 (PTGER2 (EP2); [4]) | Structure (SMILES)
18 | 18 nM | 13 nM |  |  | CNc1cc(-c2cc(NCCn3c(C#N)cc4c(OC)cccc43)ncn2)ccc1C(=O)O [Example 958, 4-{6-[2-(2-Cyano-4-methoxy-indol-1-yl)-ethylamino]-pyrimidin-4-yl}-2-methylamino-benzoic acid]
19 |  |  | 37 nM | 6 nM | CNc1cc(-c2cc(NCCn3c(C)cc4c(OC)ccc(F)c43)ncn2)ccc1C(=O)O [compound 251]
20 |  |  | 213 nM | 13 nM | CCNc1cc(-c2cc(NCCn3c(C)cc4c(C)ccc(F)c43)ncn2)cc(Cl)c1C(=O)O [compound 353, 2-Chloro-6-ethylamino-4-{6-[2-(7-fluoro-2,4-dimethyl-indol-1-yl)-ethylamino]-pyrimidin-4-yl}-benzoic acid]
21 |  |  | 91 nM | 101 nM | Cc1ccc(F)c2c1cc(C)n2CCNc1cc(-c2ccc(C(=O)O)c(N)c2)ncn1 [compound 41]
22 | 3 nM | 18 nM |  |  | CCNC(=O)Nc1ccc(-c2cc(NCCn3c(C#N)cc4c(OC)ccc(F)c43)ncn2)cc1OC [Example 982, 1-(4-{6-[2-(2-Cyano-7-fluoro-4-methoxy-indol-1-yl)-ethylamino]-pyrimidin-4-yl}-2-methoxy-phenyl)-3-ethyl-urea]
23 | 976 nM | 2 nM |  |  | CCOc1cc(-c2cc(NCCn3c(C)cc4c(F)ccc(C)c43)ncn2)ccc1C(=O)O [Example 812, 2-Ethoxy-4-{6-[2-(4-fluoro-2,7-dimethyl-indol-1-yl)-ethylamino]-pyrimidin-4-yl}-benzoic acid]
24 |  |  | 575 nM | 18 nM | Cc1ccc(F)c2c1cc(C)n2CCNc1cc(-c2ccc(C(=O)O)c(Cl)c2)ncn1 [compound 29, 2-Chloro-4-{6-[2-(7-fluoro-2,4-dimethyl-indol-1-yl)-ethylamino]-pyrimidin-4-yl}-benzoic acid]
25 | 39 nM | 6 nM |  |  | COc1ccc(F)c2c1cc(C#N)n2CCNc1cc(-c2cc3ccc(C(=O)O)cc3[nH]2)ncn1 [Example 1076, 2-(6-((2-(2-Cyano-7-fluoro-4-methoxy-1H-indol-1-yl)ethyl)amino)pyrimidin-4-yl)-1H-indole-6-carboxylic acid]
26 |  |  | 262 nM | 22 nM | CCOc1cc(-c2cc(NCCn3c(C)cc4c(OC)ccc(F)c43)ncn2)cc(C)c1C(=O)O [compound 366, 2-Ethoxy-4-{6-[2-(7-fluoro-4-methoxy-2-methyl-indol-1-yl)-ethylamino]-pyrimidin-4-yl}-6-methyl-benzoic acid]
27 |  |  | 69 nM | 4 nM | COc1ccc(F)c2c1cc(C)n2CCNc1cc(-c2cc(F)c(C(=O)O)s2)ncn1 [compound 112]
28 | 37 nM | 7 nM |  |  | COc1nc(-c2cc(NCCn3c(C)cc4c(OC)ccc(F)c43)ncn2)sc1C(=O)O [Example 1033, 2-{6-[2-(7-Fluoro-4-methoxy-2-methyl-indol-1-yl)-ethylamino]-pyrimidin-4-yl}-4-methoxy-thiazole-5-carboxylic acid]
29 |  |  | 165 nM | 15 nM | CCCNc1cc(-c2cc(NCCn3c(C)cc4c(C)ccc(F)c43)ncn2)ccc1C(=O)O [compound 356, 4-{6-[2-(7-Fluoro-2,4-dimethyl-indol-1-yl)-ethylamino]-pyrimidin-4-yl}-2-propylamino-benzoic acid]
30 | 1 nM | 21 nM |  |  | CCOc1cc(-c2cc(NCCn3c(C#N)cc4c(OC)ccc(F)c43)ncn2)sc1C(=O)NCCO [Example 1026, 5-{6-[2-(2-Cyano-7-fluoro-4-methoxy-indol-1-yl)-ethylamino]-pyrimidin-4-yl}-3-ethoxy-thiophene-2-carboxylic acid (2-hydroxy-ethyl)-amide]
31 | 8 nM | 13 nM |  |  | COc1cc(-c2cc(NCCn3c(C#N)cc4c(OC)ccc(F)c43)ncn2)sc1C1(O)COC1 [Example 826, 7-Fluoro-1-(2-{6-[5-(3-hydroxy-oxetan-3-yl)-4-methoxy-thiophen-2-yl]-pyrimidin-4-ylamino}-ethyl)-4-methoxy-1H-indole-2-carbonitrile]
32 | 246 nM | 26 nM |  |  | COC(=O)Nc1ccc(-c2cc(NCCn3c(C)cc4c(OC)ccc(F)c43)ncn2)cc1 [Example 1041, (4-{6-[2-(7-Fluoro-4-methoxy-2-methyl-indol-1-yl)-ethylamino]-pyrimidin-4-yl}-phenyl)-carbamic acid methyl ester]
33 | 8 nM | 3 nM |  |  | COc1cccc2c1cc(C#N)n2CCNc1cc(-c2cc(F)c(C(=O)O)s2)ncn1 [Example 902, 5-{6-[2-(2-Cyano-4-methoxy-indol-1-yl)-ethylamino]-pyrimidin-4-yl}-3-fluoro-thiophene-2-carboxylic acid]
34 |  |  | 405 nM | 27 nM | Cc1ccc(F)c2c1cc(C)n2CCNc1cc(-c2ccc(C(=O)O)c(C3CC3)c2)ncn1 [compound 174, 2-Cyclopropyl-4-{6-[2-(7-fluoro-2,4-dimethyl-indol-1-yl)-ethylamino]-pyrimidin-4-yl}-benzoic acid]
35 | 344 nM | 80 nM |  |  | COc1ccc(F)c2c1cc(C#N)n2CCNc1cc(-c2c(C)noc2C)ncn1 [Example 993, 1-{2-[6-(3,5-Dimethyl-isoxazol-4-yl)-pyrimidin-4-ylamino]-ethyl}-7-fluoro-4-methoxy-1H-indole-2-carbonitrile]
36 | 28 nM | 15 nM |  |  | CCc1cc(-c2cc(NCCn3c(C#N)cc4c(OC)ccc(F)c43)ncn2)ccc1OCC(=O)O [Example 834, (4-{6-[2-(2-Cyano-7-fluoro-4-methoxy-indol-1-yl)-ethylamino]-pyrimidin-4-yl}-2-ethyl-phenoxy)-acetic acid]
37 | 19 nM | 3 nM |  |  | CCOc1cc(-c2cc(NCCn3c(C)cc4c(OC)ccc(F)c43)ncn2)sc1CO [Example 1031, (3-Ethoxy-5-{6-[2-(7-fluoro-4-methoxy-2-methyl-indol-1-yl)-ethylamino]-pyrimidin-4-yl}-thiophen-2-yl)methanol]

— US12011444B2, “N-substituted indole derivatives as PGE2 receptor modulators” (Idorsia Pharmaceuticals Ltd, priority 2015, dated 2024)
